{"source": "paper PMC11475570", "about": "“Impact of Optimized Ku–DNA Binding Inhibitors on the Cellular and In Vivo DNA Damage Response” (Cancers, 2024)", "key": {"Ku 70/80": {"molecular_target": "T1, Ku 70/80 (Homo sapiens, UniProt P12956+P13010)", "T1 construct": "made in house; host or cells: baculovirus-infected Sf9 cells", "T1 sequence (P12956 whole entry)": "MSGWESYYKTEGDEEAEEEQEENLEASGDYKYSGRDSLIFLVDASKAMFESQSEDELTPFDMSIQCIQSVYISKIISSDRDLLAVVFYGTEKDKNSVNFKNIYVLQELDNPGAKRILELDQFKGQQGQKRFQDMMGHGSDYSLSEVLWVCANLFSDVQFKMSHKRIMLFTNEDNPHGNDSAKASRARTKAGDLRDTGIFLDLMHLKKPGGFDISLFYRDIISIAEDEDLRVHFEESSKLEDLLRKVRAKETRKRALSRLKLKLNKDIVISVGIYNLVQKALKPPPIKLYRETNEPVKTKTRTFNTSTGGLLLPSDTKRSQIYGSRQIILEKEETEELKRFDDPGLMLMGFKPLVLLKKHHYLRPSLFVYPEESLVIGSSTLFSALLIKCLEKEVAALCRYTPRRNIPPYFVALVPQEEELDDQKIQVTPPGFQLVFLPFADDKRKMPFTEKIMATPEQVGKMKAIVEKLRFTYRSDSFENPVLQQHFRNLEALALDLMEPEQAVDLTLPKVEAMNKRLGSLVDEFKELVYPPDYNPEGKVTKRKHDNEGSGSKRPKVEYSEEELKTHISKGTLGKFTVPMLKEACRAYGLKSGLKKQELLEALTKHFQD", "T1 sequence (P13010 whole entry)": "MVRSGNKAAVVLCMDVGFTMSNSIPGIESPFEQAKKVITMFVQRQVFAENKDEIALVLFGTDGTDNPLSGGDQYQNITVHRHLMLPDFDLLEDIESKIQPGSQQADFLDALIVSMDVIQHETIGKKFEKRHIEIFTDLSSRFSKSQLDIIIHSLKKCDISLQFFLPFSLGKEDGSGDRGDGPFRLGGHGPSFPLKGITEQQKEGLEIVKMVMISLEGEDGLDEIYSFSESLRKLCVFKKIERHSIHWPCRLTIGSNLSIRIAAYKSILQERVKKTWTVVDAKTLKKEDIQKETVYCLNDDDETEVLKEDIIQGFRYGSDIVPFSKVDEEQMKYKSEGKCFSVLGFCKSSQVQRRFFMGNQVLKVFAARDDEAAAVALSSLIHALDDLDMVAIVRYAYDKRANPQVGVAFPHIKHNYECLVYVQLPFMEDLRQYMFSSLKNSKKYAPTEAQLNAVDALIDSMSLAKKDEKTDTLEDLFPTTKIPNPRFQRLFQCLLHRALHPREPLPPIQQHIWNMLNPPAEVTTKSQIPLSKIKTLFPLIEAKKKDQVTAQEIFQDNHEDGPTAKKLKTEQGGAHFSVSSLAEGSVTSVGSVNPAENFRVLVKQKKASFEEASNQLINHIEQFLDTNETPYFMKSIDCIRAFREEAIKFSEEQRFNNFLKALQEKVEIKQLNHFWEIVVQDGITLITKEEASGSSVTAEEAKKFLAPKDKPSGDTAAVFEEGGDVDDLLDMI", "assay": "EMSA Ku–DNA binding inhibition", "details": "32P-labeled 30-bp duplex DNA, purified Ku 70/80, mean and SD of triplicate", "method": "(§1) The inhibitory activity of Ku-DBis on Ku-DNA binding was evaluated in vitro using Electrophoretic mobility shift assays (EMSA) with a [^32P]-labeled 30-bp duplex DNA and purified Ku 70/80. Kinase assays were performed to measure the DNA-dependent transfer of [^32P] from γ-[^32P] ATP to a synthetic p53-based peptide substrate, both as previously described. Both EMSA and DNA-PK inhibitor titration assays were performed in triplicate. Data were fit to standard binding curves using GraphPad Prism to determine IC50 values."}, "DNA-PK": {"molecular_target": "T2, DNA-PK (Homo sapiens, UniProt P12956+P13010)", "T2 construct": "made in house; Ku 70/80 from baculovirus-infected Sf9 cells", "T2 sequence (P12956 whole entry)": "as the sequence (P12956 whole entry) above", "T2 sequence (P13010 whole entry)": "as the sequence (P13010 whole entry) above", "assay": "DNA-PK kinase assay (phosphate transfer to p53 peptide)", "assay_type": "biochemical", "details": "for IC50: DNA-dependent phosphate transfer to synthetic p53 peptide, purified DNA-PK, mean and SD of triplicate", "method": "as §1"}, "H460 NSCLC cells": {"test_system": "H460 NSCLC cells", "assay": "Cellular uptake by HPLC", "assay_type": "in vitro ADME, Human", "details": "H460, 10 µM, media with 10% FBS", "method": "Cellular uptake was evaluated in two NSCLC cell lines, H460 and A549. Cells were seeded into 6-well plates at a density of 1 × 10^6 cells per well and cultured as monolayers at 37 °C and 5% CO2 for 18–24 h. Ku-DBis were added to the media at a concentration of 10 µM and incubation continued for the times indicated. Media were removed, cells were washed 3 times with PBS, 1 mL of methanol was added to each well, and cells were agitated overnight at 4 °C. The methanol was collected, and wells were washed with an additional 1 mL of methanol that was then pooled with the original. The methanol extracts were then dried under vacuum, resuspended in methanol, and analyzed by HPLC using a 250 × 4.6 and 5 μm C-18 reverse phase column with 1% TFA mobile phase in acetonitrile (ACN) gradient elution. Absorption was monitored at 425 nm, HPLC peaks were quantified using a standard curve, and picomoles of compound per million cells was calculated."}, "A549": {"test_system": "A549", "assay": "CCK-8 cell viability, single agent", "assay_type": "cell-based, Human", "method": "(§2) Cell metabolism/viability was assessed using a mitochondrial metabolism assay (CCK-8) kit (Cell Counting Kit-8, Cat: CK04, Dojindo Laboratories, Rockville, MD, USA) as previously described. Briefly, cells were seeded at a density of 3 × 10^3 cells per well in 96-well plates and allowed to adhere and stretch for 18–24 h prior to treatment. Cells were pre-treated with Ku-DBi for 24 h before bleomycin treatments. Subsequently, cells were incubated for an additional 48 h at 37 °C after which CCK-8 assay was performed. The absorbance of the formed formazan product in each well was measured at 450 nm and compared to vehicle-treated controls to determine percent cell viability. The results represent the average and SEM of triplicate determinations."}, "H1299": {"test_system": "H1299", "assay": "CCK-8 cell viability, single agent", "assay_type": "cell-based, Human", "method": "as §2"}, "MDA-468": {"test_system": "MDA-468", "assay": "CCK-8 cell viability, single agent", "assay_type": "cell-based, Human", "method": "as §2"}, "MDA-436": {"test_system": "MDA-436", "assay": "CCK-8 cell viability, single agent", "assay_type": "cell-based, Human", "method": "as §2"}, "H23": {"test_system": "H23", "assay": "CCK-8 cell viability, single agent", "assay_type": "cell-based, Human", "method": "as §2"}, "H460": {"test_system": "H460", "assay": "CCK-8 cell viability, single agent", "assay_type": "cell-based, Human", "method": "as §2"}, "MDA-MB-436": {"test_system": "MDA-MB-436", "assay": "Bleomycin-sensitization activity, CCK-8", "assay_type": "cell-based, Human", "details": "BRCA1 mutant MDA-MB-436", "method": "as §2"}, "MDA-MB-468": {"test_system": "MDA-MB-468", "assay": "Bleomycin-sensitization activity, CCK-8", "assay_type": "cell-based, Human", "details": "BRCA1 wild-type MDA-MB-468", "method": "as §2"}}, "note": "“And” between values parts separate entries of the source, which are not always exact repeats. Identical values can stand only once.", "data": [{"molecule": "COc1cccc(NC(=O)c2cc(-c3ccc(/C=C4\\C(=O)N(c5cccc(C(=O)O)c5)c5ccccc54)o3)ccc2OC)c1", "note": "[GL-3395]", "values": [{"measurement": "IC50", "setting": "Ku 70/80", "result": "2.4 µM and 2.41 µM"}, {"measurement": "DNA-PK inhibitory activity, fold more active than fluoro-modified counterparts (3618 and 3649)", "setting": "DNA-PK", "result": "~ 2.5 fold"}, {"measurement": "IC50", "setting": "DNA-PK", "result": "0.77 ± 0.24", "unit": "µM"}]}, {"molecule": "O=C(O)c1cccc(N2C(=O)/C(=C\\c3ccc(-c4ccc(F)c(C(=O)Nc5cccc(OC(F)(F)F)c5)c4)o3)c3ccccc32)c1", "note": "[GL-3618]", "values": [{"measurement": "IC50", "setting": "Ku 70/80", "result": "3.36 ± 0.89", "unit": "µM"}, {"measurement": "IC50", "setting": "DNA-PK", "result": "1.72 ± 0.15", "unit": "µM"}, {"measurement": "Cellular uptake, fold more efficient than methoxy-derivatives 3395 and 3649", "setting": "H460 NSCLC cells", "result": "~ 3 fold"}]}, {"molecule": "COc1cccc(NC(=O)c2cc(-c3ccc(/C=C4\\C(=O)N(c5cccc(C(=O)O)c5)c5ccccc54)o3)ccc2F)c1", "note": "[GL-3649]", "values": [{"measurement": "IC50", "setting": "Ku 70/80", "result": "3.55 ± 0.4", "unit": "µM"}, {"measurement": "IC50", "setting": "DNA-PK", "result": "1.74 ± 0.61", "unit": "µM"}]}, {"molecule": "O=c1cc(N2CCOCC2)oc2c(-c3cccc4c3sc3ccccc34)cccc12", "note": "[NU-7441, reference compound]", "values": [{"measurement": "Cell Viability at 25 µM", "setting": "A549; 25 µM", "result": "13.6 ± 1.4", "unit": "%ctrl"}, {"measurement": "IC50", "setting": "A549; A549, CCK-8, 72 h, mean ± SD", "result": "~4.5", "unit": "µM"}, {"measurement": "Cell Viability at 25 µM", "setting": "H1299; 25 µM", "result": "17.8 ± 5.4", "unit": "%ctrl"}, {"measurement": "IC50", "setting": "H1299; H1299, CCK-8, 72 h, mean ± SD", "result": "4 ± 0.9", "unit": "µM"}, {"measurement": "Cell Viability at 25 µM", "setting": "MDA-468; 25 µM", "result": "4.1 ± 0.9", "unit": "%ctrl"}, {"measurement": "IC50", "setting": "MDA-468; MDA-468, CCK-8, 72 h, mean ± SD", "result": "5.2 ± 0.4", "unit": "µM"}, {"measurement": "Cell Viability at 25 µM", "setting": "MDA-436; 25 µM", "result": "17.8 ± 1.3", "unit": "%ctrl"}, {"measurement": "IC50", "setting": "MDA-436; MDA-436, CCK-8, 72 h, mean ± SD", "result": "8.1 ± 0.9", "unit": "µM"}, {"measurement": "Cell Viability at 25 µM", "setting": "H23; 25 µM", "result": "4.8 ± 0.5", "unit": "%ctrl"}, {"measurement": "Fold more sensitive than the other NSCLC lines", "setting": "H23; ATM-null H23 cells", "result": "~ 2 fold"}, {"measurement": "IC50", "setting": "H23; H23, CCK-8, 72 h, mean ± SD", "result": "2.2 ± 0.1", "unit": "µM"}, {"measurement": "Cell Viability at 25 µM", "setting": "H460; 25 µM", "result": "8.3 ± 0.1", "unit": "%ctrl"}, {"measurement": "IC50", "setting": "H460; H460, CCK-8, 72 h, mean ± SD", "result": "4.8 ± 1", "unit": "µM"}, {"measurement": "Change in sensitivity to bleomycin", "setting": "MDA-MB-436", "result": "decrease in sensitivity to bleomycin"}, {"measurement": "Change in sensitivity to bleomycin", "setting": "MDA-MB-468", "result": "increase in sensitivity"}]}]}
